Reference: patent US12492356B2, “Oxa-sandalwood-type fragrance compounds” (SYMRISE AG, priority 2020, dated 2025)

What follows are compounds tested on panel of at least four experts (assay: Odor detection threshold (ODT), olfactometer TO8, DIN standard EN 13725). Settings: comparator not named in the sentence (commercial analogue).
Text: The odor detection threshold (in the following abbreviated as “ODT”) is defined as the lowest concentration of a certain odorous compound (gaseous, sensorially active substance) which is perceivable and thus which can be distinguished with certainty from a blank reference under standard conditions. Generally, lower ODT values are preferred as a lower amount of the fragrance compound is required in order to a achieve strong odor impressions and thus lower amounts can be used for perfuming. However, as the threshold depends on various factors such as concentration, solubility, partition coefficient between air and the olfactory active substance, vapor pressure, polarity, molecular mass etc., predictions referring to the ODT of a substance are difficult to make. Table 2 indicates the ODT values of preferred embodiment in comparison to commercially available Brahmanol® (Symrise AG) and Sandranol® (Symrise AG). The ODT was measured using an olfactometer TO8 and a panel of at least four experts according to DIN standard EN 13725. According to the DIN standard EN 13725, the odor threshold value is defined as the concentration of an odorous substance at which, under defined test conditions, the probability of perceiving the sample is 0.5, i.e. 50% of the test persons indicate an odor perception. Thereby, the quantitative ODT value is given as the ratio of volume fractions of an odor-free comparison matrix, such as air, to the examined matrix at which the odor could just be perceived, i.e. a dilution factor.

Row | SMILES | ODT value lower by a factor
1 | COCC1=CCC(CCC(C)CO)C1(C)C (centres unmarked) [Compound 2, 4-[3-(Methoxymethyl)-2,2-dimethyl-cyclopent-3-en-1-yl]-2-methyl-butan-1-ol] | 3

Same assay, conditions: compared with Brahmanol

Row | SMILES | threshold value reduced by the factor (in comparison to Brahmanol)
2 | CC/C(=C\CC1CC=C(COC)C1(C)C)CO (centres unmarked) [Compound 3, 2-Ethyl-4-[3-(methoxymethyl)-2,2-dimethyl-cyclopent-3-en-1-yl]but-2-en-1-ol] | about 10

Same assay, conditions: olfactometer TO8, panel of at least four experts, DIN EN 13725

Row | SMILES | ODT | ODT in air [ng/L]
3 | CC1=CCC(CCC(C)CO)C1(C)C (centres unmarked) [Brahmanol ®, 2-methyl-4-(2′,2′,3′-trimethyl-3′-cyclopenten-1′-yl)-butan-1-ol, reference compound] | 0.0173 ppm (v/v) | 6.9
4 | COCC1=CCC(C/C=C(\C)CO)C1(C)C (centres unmarked) [Compound 1, 4-[3-(Methoxymethyl)-2,2-dimethyl-cyclopent-3-en-1-yl]-2-methyl-but-2-en-1-ol] | 0.0089 ppm (v/v) | 7.1
5 | COCC1=CCC(CCC(C)CO)C1(C)C (centres unmarked) [Compound 2, 4-[3-(Methoxymethyl)-2,2-dimethyl-cyclopent-3-en-1-yl]-2-methyl-butan-1-ol] | 0.00285 ppm (v/v) | 7.6
6 | CC/C(=C\CC1CC=C(COC)C1(C)C)CO (centres unmarked) [Compound 3, 2-Ethyl-4-[3-(methoxymethyl)-2,2-dimethyl-cyclopent-3-en-1-yl]but-2-en-1-ol] | 0.0019 ppm (v/v) | 7.7
7 | C=C(CC(C)CO)C1CC=C(COC)C1(C)C (centres unmarked) [Compound 4, 4-[3-(Methoxymethyl)-2,2-dimethyl-cyclopent-3-en-1-yl]-2-methyl-pent-4-en-1-ol] | 0.0025 ppm (v/v) | 7.6
8 | CC/C(=C\CC1CC=C(C)C1(C)C)CO (centres unmarked) [Sandranol ®, 2-ethyl-4-(2′,2′,3′-trimethyl-3′-cyclopenten-1′-yl)-2-buten-1-ol, reference compound] | 0.000205 ppm (v/v) | 7.6
